Data published in patent US12569495B2, “Inhibitors of porcine reproductive and respiratory syndrome virus” (UNIVERSITY OF CONNECTICUT, priority 2020, dated 2026).
Entries after “also recorded” stand apart in the source; their conditions may differ.

Key:
[1] = test system: PRRSV strains VR-2332, SDSU73, NADC30 (Type II), or Lelystad (Type I); experiment: qRT-PCR for PRRSV RNA in PAMs infected by different strains; assay type: cell-based; settings: 15 μM; 4 h pre-treatment, 24 h post
Protocol: (§1) Total RNA was extracted from PAMs infected with PRRSV using RNeasy Mini Kit (Qiagen, Germantown, MD) according to the manufacturer's instruction. RNA concentrations were measured using a Nanodrop spectrophotometer (Thermo Fisher Scientific). GAPDH was used as a housekeeping gene for gene expression normalization. Data were processed with the software associated with ABI 7500.
(§2) For PRRSV infection of PAM cells, PAMs were seeded one day prior to infection. Control cells were treated with DMSO and test cells were treated with the selected screening compounds (5-20 μM) for 4 h before inoculation, during the 1 h PRRSV inoculation, and for 24 h after inoculation. Cells were inoculated with VR-2332, SDSU73, NADC30 or Lelystad PRRSV at MOI=0.1 for 1 h. The 24 h cell medium supernatant was stored at −80° C. until use.
The inhibitory effect of B7 was further tested on multiple strains of PRRSV. […] This inhibitory effect is further confirmed by viral titration results for the culture media of infected PAMs, with 2.8-3.1 log reduction of viral titers across the 3 Type II PRRSV strains and 2.2 log reduction of viral titer for the type I strain (Lelystad) by 15 μM B7 treatment (FIG. 5D). Thus, compound B7 indeed inhibits the PRRSV infection of PAMs. […]

[2] = MTT cytotoxicity assay in PAMs; assay type: cell-based, pig; settings: pig, porcine alveolar macrophages (PAMs), 24 h incubation, read-out: LC50, MTT assay
Protocol: (§3) The cytotoxicity of selected screening compounds was determined in porcine alveolar macrophages (PAMs) the principal host cell of productive PRRSV infection. Briefly, various concentrations of the compounds were added to PAMs seeded in 24-well plates and incubated for 24 h. Then 50 μl of the MTT assay labeling reagent (In Vitro Toxicology Assay Kit, MTT based, Sigma-Aldrich) were added to each well and incubated for 4 h before 500 μl of the solubilization solution was added into each well to fully dissolve the formazan crystal by overnight incubation. The absorbance of samples was measured using a spectrophotometry microplate reader at 600 nm. PAMs treated with DMSO served as the controls.

[3] = test system: porcine alveolar macrophages (PAMs); experiment: MTT cytotoxicity assay in PAMs; assay type: cell-based, pig
Protocol: as §3

[4] = test system: 3 Type II PRRSV strains (VR-2332, SDSU73, NADC30); experiment: PRRSV titration assay, Type II strains; assay type: cell-based; settings: 15 μM; PAMs; 24 h
Protocol: as §2
(§4) For PRRSV titration assay, MARC145 cells were seeded in 48-well plates and grew to ˜80% density before inoculation. Viral supernatants were prepared by 10-fold serial dilution, and 100 μl of the dilutions was added per well in six replicates. Inocula were removed from cells after 2 h and replaced with 0.5 mL of DMEM supplemented with 2% FBS, 2 mM glutamine, 0.1 mM MEM non-essential amino acids, 50 U/mL penicillin, and 50 μg/mL streptomycin (Invitrogen). Cells were cultured at 37° C. for 6 days and any cytopathic effects were observed and recorded. The PRRSV titer was calculated using the Reed and Muench method and expressed as median tissue culture infectious dose (TCID50/mL). Reed and Muench, Am. J. Epidemiol. 27(3): 493-497 (1938).
The inhibitory effect of B7 was further tested on multiple strains of PRRSV. […]

PRRSV strain VR-2332 [5] = experiment: qRT-PCR for PRRSV RNA in infected PAMs; assay type: cell-based
Protocol: as §1
(§5) For PRRSV infection of PAM cells, PAMs were seeded one day prior to infection. […] Cells were inoculated with VR-2332, SDSU73, NADC30 or Lelystad PRRSV at MOI=0.1 for 1 h. The 24 h cell medium supernatant was stored at −80° C. until use.

PRRSV strain VR-2332 [6] = experiment: PRRSV titration assay of culture media of infected PAMs; assay type: cell-based; settings: for log reduction of viral titer: pre- and post-inoculation treatment
Protocol: as §5, §4

Cc1cc(F)ccc1S(=O)(=O)Nc1nc2ccccc2nc1Nc1cccc(S(=O)(=O)N2CCOCC2)c1 [Compound B7, 4-fluoro-2-methyl-N-[3-(3-morpholin-4-ylsulfonylanilino)quinoxalin-2-yl]benzenesulfonamide]
viral RNA detected in infected PAMs (qRT-PCR), all PRRSV strains [1]: significantly decreased the viral RNA; also recorded: significantly inhibited the infection
CC50 at 24 h [2]: 81.7 µM
concentrations well-tolerated by PAMs (MTT assay) ([3]; 24 h): below 25 μM
IC50 ([3]; Sus scrofa, Macrophage, 24 h incubation, read-out: IC50, cell viability in MTT assay): 81.7 µM
log reduction of viral titers across the 3 Type II PRRSV strains [4]: 2.8-3.1 log
inhibition of PRRSV infection of PAMs (qRT-PCR, viral RNA) (PRRSV strain VR-2332 [5]; 0, 5, 10, 15, 20 μM, 4 h pre-treatment, 1 h inoculation MOI=0.1, 24 h after inoculation): dose-dependent inhibition; also recorded: inhibits PRRSV infection of porcine alveolar macrophages (PAMs)
inhibitory effect on PRRSV infection (qRT-PCR), pre-treatment alone (PRRSV strain VR-2332 [5]; 15 μM, 4 h pre-treatment only, no post-treatment, VR-2332): minimal impact
log reduction of viral titer (PRRSV strain VR-2332 [6]; 10 μM, 24 h): 1.7 log
log reduction of PRRSV titer, post-inoculation treatment alone (PRRSV strain VR-2332 [6]; 15 μM, 24 h): 2.8 log
log reduction of viral titer (PRRSV strain VR-2332 [6]; 15 μM, 24 h): 2.9 log
inhibition of PRRSV infection of PAMs (titration of culture media) (PRRSV strain VR-2332 [6]; 10-20 μM B7, 24 h): inhibited PRRSV infection of PAMs effectively
